Assay [1] deals with T1, FXR (Homo sapiens, UniProt Q96RI1).
T1 sequence (Q96RI1 1-486): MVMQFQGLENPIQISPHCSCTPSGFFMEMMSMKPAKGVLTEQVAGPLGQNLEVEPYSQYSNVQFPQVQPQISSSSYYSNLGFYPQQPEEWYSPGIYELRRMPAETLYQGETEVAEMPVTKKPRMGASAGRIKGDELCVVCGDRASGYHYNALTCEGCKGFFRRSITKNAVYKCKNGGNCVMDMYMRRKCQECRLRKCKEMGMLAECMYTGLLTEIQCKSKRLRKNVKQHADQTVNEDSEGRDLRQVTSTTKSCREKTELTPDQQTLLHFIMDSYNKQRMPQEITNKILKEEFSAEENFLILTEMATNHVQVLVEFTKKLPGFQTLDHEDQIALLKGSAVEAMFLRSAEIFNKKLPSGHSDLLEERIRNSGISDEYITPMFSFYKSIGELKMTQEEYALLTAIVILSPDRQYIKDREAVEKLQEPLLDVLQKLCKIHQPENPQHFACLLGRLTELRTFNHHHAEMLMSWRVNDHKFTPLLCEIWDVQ
T1 sequence (P19793 1-462 partner): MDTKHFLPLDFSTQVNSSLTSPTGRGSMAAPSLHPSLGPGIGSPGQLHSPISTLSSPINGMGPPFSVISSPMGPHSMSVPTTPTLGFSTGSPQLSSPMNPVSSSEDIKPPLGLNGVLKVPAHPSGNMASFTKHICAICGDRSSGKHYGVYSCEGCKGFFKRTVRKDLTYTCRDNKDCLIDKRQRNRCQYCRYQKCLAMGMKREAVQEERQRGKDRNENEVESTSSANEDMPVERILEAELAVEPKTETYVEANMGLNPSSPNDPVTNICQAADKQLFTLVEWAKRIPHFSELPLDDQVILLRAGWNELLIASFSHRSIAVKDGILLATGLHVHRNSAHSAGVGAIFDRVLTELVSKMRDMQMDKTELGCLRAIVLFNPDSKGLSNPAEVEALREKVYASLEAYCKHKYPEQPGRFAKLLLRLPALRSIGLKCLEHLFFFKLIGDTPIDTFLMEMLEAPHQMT
Description: In Vitro FXR Assay (PGL3), luciferase reporter in transfected CV-1 cells. The assay is classed as cell-based. Details: plasmids XPD90Gal pCMXhFXRfl, pCMXhRXRfl+PGL3-ECRE*6-luc+CMX-YFP; expressed in transfected cells; host or cells: CV-1 cells. The settings on record: CV-1 cells transfected with hFXR, hRXR, PGL3-ECRE*6-luc; 18 hrs incubation; luminescence. The method, then: Example B-1: In Vitro FXR Assay (PGL3)
CV-1 cells were seeded at a density of 2,000,000 cells in a T175 flask with DMEM+10% charcoal double-stripped FBS and incubated at 37° C. in a 5% CO2 for 18 h (0/N).
After 18 h of incubation, the medium in the T175 flask was changed with fresh DMEM+10% charcoal super-stripped serum.
To prepare the transfection reaction mixture, the transfection reagent (X-tremeGENE HP from Roche, Cat #06 366 236 001) was added in to a 1.5 mL microcentrifuge tube labelled “A” at a ratio of 1:3 (DNA in μg: transfection reagent in μL). OptiMEM medium (Life Technologies, Cat #31985-062) was added accordingly to provide a total volume of 1 mL. The transfection reaction mixture was then briefly vortexed and incubated at room temperature for 5 minutes.
In a separate 1.5 mL microcentrifuge tube labelled “B”, 100 μL OptiMEM and plasmids XPD90Gal pCMXhFXRfl, pCMXhRXRfl+PGL3-ECRE*6-luc+CMX-YFP in the ratio 2 μg: 2 μg:18 μg:3 μg were added. This microcentrifuge tube “B” was then briefly vortexed and incubated at room temperature for 5 minutes.
The total volume in tube labelled “A” was then transferred in to tube labelled “B.” The mixture was then briefly vortexed and the transfection:DNA complex was then incubated for about 15-20 minutes at room temperature.
Following incubation, the transfection reagent/DNA mixture complex was then added to cells in the T175 flask and the cells were incubated at […] (0/N) at 37° C. in 5% CO2.
In a 96 well plate, a half logarithmic serial dilution was prepared. OptiMEM was used as the diluent. Using any of one of the compounds described herein, a compound stock solution of 10 mM was prepared. An initial 1:100 dilution was made into the first well for a final concentration of 100 μM. The final concentrations in the 96-well plate was prepared by using a multichannel pipette to transfer 5 μL of the diluted compound to 384-well plate in quadruplicate.
Cells in T175 flask were trypsinized and cells were resuspending in 40 mL phenol red free DMEM+10% charcoal super-stripped FBS. Typically, one T175 flask was sufficient to seed two 384 well plates. CV-1 cells were seeded at 45 μL cell suspension/well using a multi-channel pipet or a 384 multidrop dispenser. The cells were then incubated for 18 hrs, overnight.
After removing the plates from the incubator, the medium was flicked out of plate and 384 well plate was turned upside down onto paper towel. The remaining medium was gently tapped out. 15 μL lysis buffer was then added to each well using a multichannel pipet or a 384 well multi-drop dispenser. After incubation for 10 minutes at room temperature on shaker, 30 μL Luciferase buffer was added to each well. Luminescence counts were taken immediately using the Perkin Elmer Envision.
The ability of the compounds disclosed herein to […] FXR activity was quantified and the respective EC50 value was determined. Fex=fexaramine.

Assay [2] concerns the target T1, FXR. Description: In Vitro FXR Assay (TK), luciferase reporter in transfected CV-1 cells. Details: expressed in transfected cells; host or cells: CV-1 cells. The conditions noted are these: CV-1 cells transfected with hFXR, hRXR, TK-ECRE-luc; 18 hrs incubation; luminescence; maximum efficacy <25% of Fexaramine control also classified '+'. The assay is classed as cell-based. The method, then:
Example B-2: In Vitro FXR Assay (TK)
CV-1 cells were seeded at a density of 2,000,000 cells in a T175 flask with DMEM+10% charcoal double-stripped FBS and incubated at 37° C. in 5% CO2 for 18 h (0/N).
After 18 h of incubation, the medium in the T175 flask was changed with fresh DMEM+10% charcoal super-stripped serum. In a polypropylene tube, 2500 μL OptiMEM (Life Technologies, Cat #31985-062) was combined with expression plasmids for hFXR, hRXR, TK-ECRE-luc and pCMX-YFP. The tube was then briefly vortexed and incubated at room temperature for 5 minutes. Transfection reagent (X-tremeGENE HP from Roche, Cat #06 366 236 001) was added to the OptiMEM/plasmid mixture vortexed and incubated at room temperature for 20 minutes. Following incubation, the transfection reagent/DNA mixture complex was added to cells in the T175 flask and the cells were incubated at 37° C. in 5% CO2 for 18 h (O/N).
Compounds were serially diluted in DMSO and added to transfected CV-1 cells. The cells were then incubated for 18 hrs. The next day cells were lysed and examined for luminescence.
In general terms: In a reporter assay the amount or activity of a reporter protein is the signal.

In the case of `CN(C)c1ccc(N2CCC(CN(C(=O)C3CCCCC3)c3cccc(/C=C/C(=O)O)c3)CC2)cc1` [Compound 6, (E)-3-(3-(N-((1-(4-(Dimethylamino)phenyl)piperidin-4-yl)methyl)cyclohexanecarboxamido)phenyl)acrylic acid], the “Cmpd/Fex (ratio of the EC50 for the test compound relative to the EC50 of the Fexaramine control)” value on FXR [1] was “+ (‘+’ means Cmpd/Fex >100)”. Besides, the EC50 (commonly the midpoint of the concentration-response curve) at FXR [2] was at least 10 µM.
With `COC(=O)/C=C/c1cccc(N(CC2CCC(c3ccc(Cl)cc3)CC2)C(=O)C2CCCCC2)c1` (stereo not shown) [Compound 7, (E)-Methyl 3-(3-(N-((4-(4-chlorophenyl)cyclohexyl)methyl)cyclohexanecarboxamido)phenyl)acrylate], the “Cmpd/Fex (ratio of the EC50 for the test compound relative to the EC50 of the Fexaramine control)” value at FXR [1] is reported as “+++ (‘+++’ means Cmpd/Fex <10)”. Also, at FXR [2], the EC50 is at most 1 µM.

The values above are taken from US20190062277A1, “FARNESOID X RECEPTOR AGONISTS AND USES THEREOF” (Metacrine, Inc., priority 2015, published 2019).
